Source: the supplement of paper PMC11451515

System: P12-Ichikawa
Test: cell viability relative to DMSO control; higher = less cytotoxic
Conditions: 48 h
Outline: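 Before seeding, each leukemia line was adapted for at least four passages in each medium. NOMO1 or SEM cells (500 cells/well) and P12-Ichikawa cells (1000 cells/well) went into 1536-well plates at 5 μl, then received library compounds in DMSO by pin dosing across 11 threefold concentrations, 47 μM to 0.79 nM. Readout was CellTiter-Glo One luminescence after 48 h at 37°C, and viability is given as a per-plate percentage of DMSO wells, with cell-free wells as background.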

[1] = HPLM + 10% dialyzed FBS, 0.000781 µM
[2] = HPLM + 10% dialyzed FBS, 0.00234 µM
[3] = HPLM + 10% dialyzed FBS, 0.00702 µM
[4] = HPLM + 10% dialyzed FBS, 0.0211 µM
[5] = HPLM + 10% dialyzed FBS, 0.0632 µM
[6] = HPLM + 10% dialyzed FBS, 0.19 µM
[7] = HPLM + 10% dialyzed FBS, 0.569 µM
[8] = HPLM + 10% dialyzed FBS, 1.71 µM
[9] = HPLM + 10% dialyzed FBS, 5.12 µM
[10] = HPLM + 10% dialyzed FBS, 15.4 µM
[11] = HPLM + 10% dialyzed FBS, 46.1 µM
[12] = RPMI 5 mM glucose + 10% FBS, 0.000781 µM
[13] = RPMI 5 mM glucose + 10% FBS, 0.00234 µM
[14] = RPMI 5 mM glucose + 10% FBS, 0.00702 µM
[15] = RPMI 5 mM glucose + 10% FBS, 0.0211 µM
[16] = RPMI 5 mM glucose + 10% FBS, 0.0632 µM
[17] = RPMI 5 mM glucose + 10% FBS, 0.19 µM
[18] = RPMI 5 mM glucose + 10% FBS, 0.569 µM
[19] = RPMI 5 mM glucose + 10% FBS, 1.71 µM
[20] = RPMI 5 mM glucose + 10% FBS, 5.12 µM
[21] = RPMI 5 mM glucose + 10% FBS, 15.4 µM
[22] = RPMI 5 mM glucose + 10% FBS, 46.1 µM
[23] = RPMI 5 mM glucose + 10% dialyzed FBS, 0.000781 µM
[24] = RPMI 5 mM glucose + 10% dialyzed FBS, 0.00234 µM
[25] = RPMI 5 mM glucose + 10% dialyzed FBS, 0.00702 µM
[26] = RPMI 5 mM glucose + 10% dialyzed FBS, 0.0211 µM
[27] = RPMI 5 mM glucose + 10% dialyzed FBS, 0.0632 µM
[28] = RPMI 5 mM glucose + 10% dialyzed FBS, 0.19 µM
[29] = RPMI 5 mM glucose + 10% dialyzed FBS, 0.569 µM
[30] = RPMI 5 mM glucose + 10% dialyzed FBS, 1.71 µM
[31] = RPMI 5 mM glucose + 10% dialyzed FBS, 5.12 µM
[32] = RPMI 5 mM glucose + 10% dialyzed FBS, 15.4 µM
[33] = RPMI 5 mM glucose + 10% dialyzed FBS, 46.1 µM

Structure (SMILES) | cell viability [1] [%] | cell viability [2] [%] | cell viability [3] [%] | cell viability [4] [%] | cell viability [5] [%] | cell viability [6] [%] | cell viability [7] [%] | cell viability [8] [%] | cell viability [9] [%] | cell viability [10] [%] | cell viability [11] [%] | cell viability [12] [%] | cell viability [13] [%] | cell viability [14] [%] | cell viability [15] [%] | cell viability [16] [%] | cell viability [17] [%] | cell viability [18] [%] | cell viability [19] [%] | cell viability [20] [%] | cell viability [21] [%] | cell viability [22] [%] | cell viability [23] [%] | cell viability [24] [%] | cell viability [25] [%] | cell viability [26] [%] | cell viability [27] [%] | cell viability [28] [%] | cell viability [29] [%] | cell viability [30] [%] | cell viability [31] [%] | cell viability [32] [%] | cell viability [33] [%]
Cc1cc(SCc2sc(-c3ccc(C(F)(F)F)cc3)nc2C)ccc1OCC(=O)O | 97.8 | 102 | 102 | 104 | 102 | 99.8 | 106 | 100 | 103 | 94.9 | 90.6 | 98.3 | 104 | 96.6 | 101 | 106 | 91.2 | 101 | 94.6 | 94.8 | 81.1 | 83.2 | 96.8 | 101 | 102 | 96.6 | 94.8 | 97 | 101 | 92.5 | 97.6 | 87.2 | 83.5
C=CC(=O)Nc1cccc(Oc2nc(Nc3ccc(N4CCN(C)CC4)cc3OC)ncc2Cl)c1 | 75 | 79.3 | 78.4 | 84.9 | 84.7 | 86.3 | 83 | 79.6 | 76.5 | 70.6 | 52.2 | 68 | 76 | 76.1 | 79.5 | 80.9 | 83.7 | 80.1 | 82.1 | 66 | 58.3 | 50.3 | 73 | 89.4 | 82.8 | 79.9 | 81.6 | 80.9 | 74.6 | 83.3 | 70.6 | 64.7 | 49.5
COc1ccc2c(OCc3nnc4ccc(-c5ccccc5)nn34)ccnc2c1 | 101 | 116 | 106 | 104 | 104 | 97.5 | 104 | 95.9 | 103 | 103 | 28.1 | 115 | 117 | 123 | 122 | 114 | 106 | 112 | 117 | 106 | 124 | 122 | 123 | 118 | 105 | 111 | 105 | 105 | 106 | 103 | 106 | 109 | 77.7
CO[C@H]1/C=C/O[C@@]2(C)Oc3c(C)c(O)c4c(O)c(c(/C=N\N5CCN(C6CCCC6)CC5)c(O)c4c3C2=O)NC(=O)/C(C)=C\C=C\[C@H](C)[C@H](O)[C@@H](C)[C@@H](O)[C@@H](C)[C@H](OC(C)=O)[C@@H]1C | 112 | 122 | 117 | 109 | 104 | 98.2 | 98.2 | 71.5 | 19.8 | 1.51 | -0.607 |  | 87.9 | 93.7 | 78.7 | 70.7 | 70.7 | 68 | 51.8 | 5.83 | 0.395 | -0.516 | 101 | 111 |  | 87.7 | 84.1 | 74.6 | 85.2 | 61.8 | 13.6 | 5.16 | 0.889
COc1ccc(CC2c3cc(OC)c(OC)cc3CC[N+]2(C)CCC(=O)OCCCCCOC(=O)CC[N+]2(C)CCc3cc(OC)c(OC)cc3C2Cc2ccc(OC)c(OC)c2)cc1OC (stereo not given) | 86.1 | 86.6 | 86.3 | 97.2 | 90.5 | 96.3 | 92 | 96.6 | 97.8 | 95.1 | 86.7 | 82.7 | 86.4 | 91.6 | 92.1 | 92.4 | 95.6 | 99.3 | 99.2 | 85.3 | 96.3 | 83.7 | 80.3 | 83.5 | 87.3 | 91.4 | 93.1 | 96.6 | 93.2 | 83.1 | 86.2 | 95.1 | 90.7
FC1=CC=C(CN2\C=C/C=C(/C(=O)N[C@@H](COC3=CC4=C(NC(=O)N4)C=C3)C5=CC=CC=C5)C2=O)C=C1F | 89.1 | 97.2 | 98.9 | 96.2 | 104 | 98.8 | 97.3 | 89.2 | 76.4 | 70.1 | 64.7 | 82.9 | 90.2 | 85.9 | 86.8 | 88.9 | 88.9 | 86.9 | 72.6 | 53.9 | 50.5 | 44.8 | 81.6 | 89.4 | 90.5 | 94.6 | 89.3 | 94.5 | 79.9 | 76.6 | 58.5 | 54.2 | 45.4
CN(C)CC[C@H](CSc1ccccc1)Nc1ccc([S+](=O)([O-])NC(=O)c2ccc(N3CCN(Cc4ccccc4-c4ccc(Cl)cc4)CC3)cc2)cc1[N+](=O)[O-] | 118 | 123 | 120 | 110 | 115 | 97.8 | 85.4 | 56.7 | 14.9 | 7.53 | 4.59 | 127 | 116 | 116 | 115 | 120 | 115 | 108 | 79.9 | 24.2 | 12.5 | 4.92 | 124 | 128 | 124 | 124 | 119 | 117 | 95.5 | 76.1 | 15.8 | 8.77 | 4.13
C=C[C@H]1CN2CCC1C[C@@H]2[C@@H](O)c1ccnc2ccccc12 (stereo not given in full) | 101 | 99.5 | 95.9 | 99.6 | 100 | 92.4 | 87.7 | 93.6 | 85.8 | 90.7 | 78.2 | 93.8 | 93.4 | 99.5 | 94.7 | 103 | 90.9 | 86.4 | 92.3 | 90.8 | 83.3 | 67.8 | 101 | 89.4 | 91.7 | 96.6 | 97.2 | 92.6 | 96.5 | 81.7 | 84.5 | 81.8 | 67.9
CN(CCOc1ccc(NS(C)(=O)=O)cc1)CCc1ccc(NS(C)(=O)=O)cc1 | 108 | 114 | 119 | 115 | 126 | 127 | 127 | 111 | 118 | 123 | 121 | 118 | 127 | 116 | 126 | 121 | 129 | 131 | 126 | 125 | 136 | 126 | 113 | 114 | 114 | 114 | 117 | 129 | 123 | 122 | 120 | 120 | 115
CO[C@@H]1[C@@H](OC(N)=O)[C@@H](O)[C@H](OC2=CC=C3\C(=C(NC(=O)C4=CC=C([O-])C(=C4)CC=C(C)C)/C(=O)OC3=C2C)O)OC1(C)C | 118 | 108 | 119 | 115 | 111 | 106 | 110 | 104 | 102 | 100 | 100 | 107 | 108 | 124 | 110 | 114 | 110 | 113 | 110 | 108 | 94.2 | 97.8 | 109 | 105 | 109 | 110 | 105 | 106 | 108 | 109 | 98 | 98.5 | 88.3
OCCNC1CCCc2c1[nH]c1ccc(-c3ccccc3)cc21 (stereo not given) | 100 | 107 | 106 | 105 | 110 | 110 | 115 | 108 | 111 | 78.4 | 16.6 | 103 | 111 | 109 | 108 | 114 | 108 | 114 | 118 | 110 | 73.5 | 18.2 | 105 | 111 | 113 | 109 | 107 | 114 | 119 | 114 | 111 | 80.4 | 28.9
NC(=O)c1ccc(-c2nc(-c3ccc4c(c3)OCO4)c(-c3ccccn3)[nH]2)cc1 | 124 | 124 | 123 | 107 | 127 | 123 | 116 | 114 | 110 | 112 | 100 | 122 | 130 | 116 | 109 | 118 | 111 | 108 | 116 | 100 | 107 | 93.8 |  |  |  |  |  |  |  |  |  |  | 
CCC(=O)OC1CCC2C3CCC/4=C/C(=O)CC[C@@]4(C)C3CC[C@]12C (stereo not given in full) | 116 | 120 | 126 | 129 | 126 | 127 | 132 | 128 | 129 | 125 | 117 |  |  |  |  |  |  |  |  |  |  |  |  |  |  |  |  |  |  |  |  |  | 
COc1ccc(C(=O)CC(=O)c2ccc(C(C)(C)C)cc2)cc1 | 105 | 112 | 113 | 110 | 120 | 116 | 119 | 113 | 118 | 108 | 97.2 | 101 | 97.6 | 104 | 106 | 116 | 111 | 103 | 109 | 112 | 106 | 90.7 | 98.1 | 107 | 111 | 112 | 110 | 119 | 117 | 113 | 120 | 110 | 91.1
O=C(C[C@@H]1C/C=C\CCC(=O)O[C@H](c2ccccc2)CNC1=O)NCc1ccc(Cl)cc1 | 99.1 | 110 | 79.7 | 117 | 126 | 122 | 116 | 119 | 123 | 116 | 117 | 95.1 | 117 | 70 | 112 | 115 | 118 | 128 | 128 | 115 | 119 | 123 | 102 | 115 | 79.3 | 120 | 120 | 120 | 123 | 119 | 114 | 120 | 113
